Data set [1] concerns lolitrem B toxicosis (Rye Grass Staggers). The data set can be described thus: Gait analysis and time to falling. Type of data set: in vivo, sheep. The procedure: Gait analysis was performed on entry to the trial and at designated time points throughout the trial as described above. To achieve this, animals were moved from their individual pens to an external yard in their cohort groups (five animals, one from each treatment). Animals were then encouraged to move at a run, initially in a group and then individually, for a minimum of three minutes per animal whilst their movement was captured on video and gait observations recorded.
Once all animals had been analysed the whole cohort was returned to their individual pens. Gait abnormalities such as stumbling, falling or disorientation were noted, including observation of Type 1 or Type 2 gait changes as described in Combs et, al., (2014). Type I movement disorder is defined as an impaired alternating movement (dysdiadochokinesia), bunny-hopping gait and failure to maintain an appropriate direction. Type 2 movement disorder is defined by increasing rigidity of limbs on forced movement resulting finally in tonic fore and hind limb extension with the animal collapsing into sternal or lateral recumbency (Combs, Rendell et at 2014). Scores between those denoted above were considered as a gradation between the stated clinical observations. Analysis of gait was performed using the following scale in Table 2 and a composite score noted for each animal for each day during the end of trial protocol. A total score out of 30 was determined for each animal. The higher the score the greater the locomotory disturbance. Time to falling was determined post trial by analysis of video material,
Animals that met the entry criteria (severe Type 2 gait abnormality and falling) were submitted to the end-of-trial protocol. […] Animals were subjected to the following tests on days 1 and 3: gait analysis, full neurological examination, venous blood and urine sampling and EMG. Only gait analysis was performed on day 2.

Data set [2] has as its system sheep. The note with it: 120 mg/kg bromide. The procedure: KBr solution was administered via an orogastric tube, then flushed with 500 mL water. Blood samples were collected at 0, 1, 2, 3, 4, 6, 8, 10, 12, 24 h, then at 12 h intervals to 240 h, then at 24 h intervals to 336 h. A final sample was taken at 504 h. When collecting blood samples at 1 h through to 10 h the rumen was auscultated, over the caudo-dorsal blind sack, to determine if the high salt load affected rumen motility.

Data set [3] can be described thus: Serum and cerebrospinal fluid bromide concentrations in the sheep trial. Type of data set: in vivo. The following applies: sheep, sheep. How it is done:
Venous blood samples collected for biochemical analysis and haematocrit (PCV), and urine for USG, at three specific time points during the experiment for all animals: 1) on entry to the trial; 2) on date of entry to the end of trial protocol and, 3) on day of necropsy.
A full clinical examination was performed prior to euthanasia. At euthanasia, 100 I.U. heparin (Provet Riverina Pty Ltd) was injected into the jugular vein, followed shortly by Lethabarb (20 mL/40 kg LW). Immediately after euthanasia, the ventral articulation of C1 was exposed and cerebrospinal fluid (CSF) collected using a 23 g needle. The head was then removed and subjected to perfusion fixation. Briefly, the carotid arteries were exposed and a small catheter inserted and ligated to secure the perfusion lines. Two liters of 0.1% phosphate buffered saline (PBS) containing 3000 I.U of heparin/L was then slowly perfused via the ligated vessels at a pressure of 90 mm Hg using a Microgon peristaltic Pump (Microgon, Laguna Hills, Calif.). Once complete this was replaced with 4% paraformaldehyde (Sigma-Alrich) in 0.1% PBS and a further two liters allowed to perfuse slowly through the tissues of the head. Once complete, catheters were removed and the whole head placed at 4° C. overnight to complete fixation. Twenty-four hours post perfusion fixation the brain was removed from the skull and placed in 10% formal saline for storage until dissection for processing to wax sections.
Absorbance was measured with a spectrophotometer at 440 nm. […] The lower limit of quantification (LOQ) was 25 μg/mL.

The test system of data set [4] is lolitrem B toxicosis (Rye Grass Staggers). The data set can be described thus: Clinical and neurological signs in sheep fed lolitrem B-containing toxic feed with or without potassium bromide. Type of data set: in vivo. The following applies: sheep, Group 5: prophylactic oral KBr only. How it is done:
Animals were exposed to a controlled diet containing 0.16 mg/kg body weight (BW) lolitrem B toxin rising to 0.27 mg/kg BW after 21 days exposure to toxic feed. Toxin was delivered as perennial rye grass seed (GA66 AR98, Grasslanz Technology Ltd, NZ) containing very high levels of lolitrem B toxin (11 ppm DM) as a component of the animal's feed intake.
On entry to the trial, all animals receiving toxic feed were exposed to a diet containing experimental ryegrass seed with a final lolitrem B concentration of 0.08 mg/kg LW, lucerne chaff and molasses 30% w/v for 3 days. After this induction period, the toxin content of the feed was increased to 0.16 mg/kg LW for the duration of the trial. […] Ryegrass seed constituted up to 65% of available Feed on Offer (FOO) by dry weight contributing a metabolisable energy of 12.1 Mj/kg DM.
At entry to the trial, all animals were subjected to a full clinical examination. Live weight was recorded. Venous blood and urine samples were collected for laboratory. Animals were also subjected to gait analysis, neurological examination including proprioceptive testing, cranial nerve examination and papillary light and menace reflexes. Electromyography (EMG) of tricep and neck muscles was performed. Gait analysis (see below) was repeated at three day intervals until onset of significant clinical signs and/or gait abnormality at which point animals were subjected to gait analysis daily. Gait analysis was recorded on video each occasion.
General clinical signs were also noted on a daily basis; these included observations of nervousness or agitation, changes in normal placement of body, limb or head position changes in faecal consistency, feeding behaviour or water consumption, observeable tremor of the body or head, eye position (strabismus) and movement (nystagmus), locomotory disturbances, or any other clinical changes worthy of note. Feed and water intake was monitored daily for the duration of the trial. Heart rate, respiration rate at rest and rectal temperature were also monitored daily.
Prophylactic sheep received a split loading dose of 300 mg/kg on day 1, 120 mg/kg (100 mg LD+20 mg/kg daily maintenance dose) on day 2, 120 mg/kg on day 3 and 20 mg/kg daily for the duration of the trial. An acute treatment dose of 300 mg/kg LW was used for the trial. Both prophylactic and acute treatment doses were envisaged to give serum concentrations of 750 to 1000 μg/ml for the duration of the initial weeks of the trial.
Group 1—Negative Control: lucerne chaff only;
Group 2—Positive Control: lucerne chaff containing 0.16 mg/kg LW lolitrem B;
Prophylactic treatment sheep (Groups 4 & 5) received a split loading dose of 300 mg/kg on day 1 of the trial, 120 mg/kg (100 mg LD 20 mg/kg daily maintenance dose) on day 2, 120 mg/kg on day 3 and 20 mg/kg daily thereafter. Acute therapy sheep were dosed with a single dose of 300 mg/kg on day of falling.
End of the trial was defined for Groups 2 and 3 as date of falling. Group 1 animals entered the end of trial protocol with their Group 2 counterparts. Group 4 and 5 animals entered the end of trial protocol after 22 days. This end of trial protocol consisted of the following analysis: • On Day 1: animals were subjected to a full clinical examination, gait analysis, urine and blood collection, neurological examination and EMG. • On Day 2: further gait analysis was recorded, • On Day 3: animals were again subjected to full clinical examination, gait analysis, urine and blood collection, neurological examination and EMG as well as live weight recorded prior to necropsy.

One may read the Kp as tissue or fluid exposure divided by exposure in the circulation. In the case of `Br` [bromide], the time to falling in data set [1] (printed as Group 2 Day 2, 24 hours after single oral dose of bromide 300 mg/kg LW) is 145.66 ± 22.07 s; in data set [1] (printed as Group 2 Day 3, 48 hours after single oral dose of bromide 300 mg/kg LW), 124.75 ± 22.06 s; in data set [1] (printed as Group 2 day 1, intoxicated sheep before single oral dose of bromide 300 mg/kg LW), 52.44 s. Also, in data set [2] (either treatment group (IV, PO)), the adverse reactions entry is reported as “No adverse reactions were noted”. The “tranquilising effect, subjective observation” value in data set [2] (IV group) is “mild tranquilising effect”. Further, in data set [2] (PO group), the neurological effects result is “no discernable neurological effects”. Besides, the rumen motility entry in data set [2] (PO group) is on record as “no observed alteration”. The Kp at 48 hours in data set [3] (cerebrospinal fluid and serum, oral, 300 mg/kg, mean ratio of serum bromide:CSF bromide, Group 3, acute bromide treatment plus lolitrem B, 48 hours) was found to be 0.81. The Kp at 22 days is 0.91 in data set [3] (cerebrospinal fluid and serum, oral, mean ratio of serum bromide:CSF bromide, Group 4, bromide prophylactic treatment plus lolitrem B); 0.74 in data set [3] (cerebrospinal fluid and serum, oral, mean ratio of serum bromide:CSF bromide, Group 5, bromide prophylactic controls). Besides, the “serum bromide, factor Group 4 over Group 5” value in data set [3] (prophylactic bromide plus lolitrem B versus prophylactic bromide alone, 22 days) was 1.27. In addition, the “animals showing evidence of mild anxiolysis” value in data set [4] was found to be 519. In data set [4] (no toxic feed, 22 days), the “Altered stance, number of animals affected” value is on record as 4. Moreover, the “Fine tremor, number of animals affected” value in data set [4] (no toxic feed, 22 days) is on record as “one”.

The record behind these values is US9913858B2, “Prevention and treatment of toxicosis” (priority 2013, dated 2018).
